# Source: article PMC5712521, “Dendrogenin A drives LXR to trigger lethal autophagy in cancers” (Nature Communications, 2017)
# Where a SMILES comes first, the peptide text is derived from it. The star is where a group is joined. Cbz = O=C(OCc1ccccc1)*; CH2F = FC*
# Assays:
# [1] = target: T1, human liver-X-receptor LXRα (Homo sapiens, UniProt Q13133); assay: LXRE-luciferase gene reporter assay in HEK293T, LXRα; format: cell-based; details: DDA analogs
# T1 construct: expressed in transfected cells; host or cells: HEK293T
# T1 sequence (Q13133 1-447): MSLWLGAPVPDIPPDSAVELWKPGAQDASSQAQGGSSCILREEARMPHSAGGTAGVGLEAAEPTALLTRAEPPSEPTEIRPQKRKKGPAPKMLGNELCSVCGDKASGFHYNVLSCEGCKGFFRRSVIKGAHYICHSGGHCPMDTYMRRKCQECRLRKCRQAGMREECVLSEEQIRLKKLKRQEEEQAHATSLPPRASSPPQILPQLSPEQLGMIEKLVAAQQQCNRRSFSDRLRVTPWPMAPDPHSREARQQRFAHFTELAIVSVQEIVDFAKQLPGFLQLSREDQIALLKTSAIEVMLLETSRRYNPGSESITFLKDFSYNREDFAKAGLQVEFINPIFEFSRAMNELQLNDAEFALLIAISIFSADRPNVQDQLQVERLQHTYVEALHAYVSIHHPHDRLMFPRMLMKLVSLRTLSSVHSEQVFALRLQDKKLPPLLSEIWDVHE
# T1 sequence (P48443 1-463 partner): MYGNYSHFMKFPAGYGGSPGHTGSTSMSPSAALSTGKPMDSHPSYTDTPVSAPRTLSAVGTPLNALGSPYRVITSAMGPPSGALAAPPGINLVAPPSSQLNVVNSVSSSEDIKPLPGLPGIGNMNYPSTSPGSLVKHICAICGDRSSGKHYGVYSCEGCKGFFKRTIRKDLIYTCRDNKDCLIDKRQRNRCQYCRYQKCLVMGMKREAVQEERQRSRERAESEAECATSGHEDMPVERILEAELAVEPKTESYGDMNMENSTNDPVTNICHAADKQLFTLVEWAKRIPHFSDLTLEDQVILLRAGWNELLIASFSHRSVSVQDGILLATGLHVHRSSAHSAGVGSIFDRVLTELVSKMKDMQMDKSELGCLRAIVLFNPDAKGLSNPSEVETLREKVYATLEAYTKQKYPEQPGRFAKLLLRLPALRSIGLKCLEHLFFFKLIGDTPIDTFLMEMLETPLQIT
# Description: (§1) HEK293T were used for luciferase assays. Cells were transfected using the PolyEthylenImine (PEI) method with human retinoid-X receptor (RXRγ) and human liver-X-receptors (LXRα or LXRβ) with LXRE-Luc; RXRγ and human farnesoid X receptor (FXR) with EcRE-Luc; RXRγ and human steroid and xenobiotic X receptor (SXR) with DR4-Luc; RXRγ and human peroxisome proliferator activated receptors (PPARα, or PPARγ) with PPRE-Luc; RXRγ and human retinoic acid receptor (RARα) with DR1-Luc; human AHR and human ARNT with a DRE-Luc; human vitamin D receptor (VDR) with VDRE-Luc. Cells were transfected with plasmids encoding human glucocorticoid receptor (GR), progesterone receptor (PR), or androgen receptor (AR) with MMTV-Luc; or estrogen receptors (ERα and ERβ) with an ERE-Luc. The day after transfection with the luciferase reporter gene construct, cells were seeded in 12-well plates (50,000 cells per well). After 6 h, cells were then treated with the following ligands dissolved in ethanol: 10 nM estradiol (E2) for ERα and ERβ; 10 nM R1881 for AR; 10 nM R5020 for PR; 10 nM dexamethasone for GR; 10 µM fenofibrate for PPARα; 100 nM rosiglitazone (BRL 49653) for PPARγ; 100 nM cis-retinoic acid (cRA) for RAR; 10 nM dioxine for AHR, 10 µM rifampicine for SXR and 10 µM 22(R) hydroxycholesterol (22(R)HC) for LXRα and LXRβ. At the end of each treatment, cells were lysed in 100 μl lysis buffer (Promega). Luciferase activity was measured using the luciferase assay reagent (Promega), according to the manufacturer’s instructions. Protein concentrations were measured using the Bradford method to normalize luciferase activities. For each condition, luciferase activity was calculated from the data of three independent wells.
# [2] = tested on: SKMEL-28 cells; assay: DDA-induced cytotoxicity (cell death); format: cell-based
# Protocol: (§2) Melanoma cells were seeded into 6-well plates at 60,000 cells per well and AML cells at 250,000 cells/ml. The cells were then treated with control solvent vehicle (1/1000 ethanol in water) or DDA. Where indicated, treated cells were incubated in the presence or absence of each inhibitor for time shown. Cell death was determined by the trypan blue exclusion assay. Cells were scraped and resuspended in trypan blue solution (0.25% (w/v) in PBS) and counted in a Malassez cell under light microscopy. Cell viability was then quantified by counting viable (trypan blue-negative) and dead cells (trypan blue-positive).
# (§3) Supplementary Fig. 1. a DDA inhibited m elanom a colony form ation. Melanom a cells were […]
# (§4) a 0.5% solution of crystal violet in water and analyzed by microscopy. Images are representative of 5 independent experiments. b Evaluation of DDA-induced cytotoxicity (cytotox) and clonogenicity (clono) inhibition in a subset of human (H) and mouse (M) m elanom a cell lines. T he BRaf status in m elanom a cells lines is shown. […]
# [3] = tested on: B16F10 cells; assay: DDA-induced cytotoxicity (cell death); format: cell-based
# Protocol: as §2, §3, §4
# [4] = target: T2, human liver-X-receptor LXRβ (Homo sapiens, UniProt P55055); assay: LXRE-luciferase gene reporter assay in HEK293T, LXRβ; format: cell-based; details: DDA analogs
# T2 construct: expressed in transfected cells; host or cells: HEK293T
# T2 sequence (P55055 whole entry, one chain of several): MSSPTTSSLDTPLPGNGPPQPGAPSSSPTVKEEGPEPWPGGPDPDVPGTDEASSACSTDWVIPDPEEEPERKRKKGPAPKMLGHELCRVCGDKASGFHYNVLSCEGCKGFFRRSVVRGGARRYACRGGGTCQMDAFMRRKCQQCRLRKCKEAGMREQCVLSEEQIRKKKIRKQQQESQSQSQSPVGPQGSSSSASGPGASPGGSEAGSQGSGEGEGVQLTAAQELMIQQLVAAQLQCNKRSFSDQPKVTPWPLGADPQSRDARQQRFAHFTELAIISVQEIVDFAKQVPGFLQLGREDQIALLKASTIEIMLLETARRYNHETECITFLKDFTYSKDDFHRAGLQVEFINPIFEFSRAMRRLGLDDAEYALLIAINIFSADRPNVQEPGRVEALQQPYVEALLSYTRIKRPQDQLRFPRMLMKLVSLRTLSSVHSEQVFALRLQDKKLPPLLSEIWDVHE
# Description: as §1, with “After 6 h, cells were then treated with the following ligands dissolved in ethanol: 10 nM estradiol (E2) for ERα and ERβ; 10 nM R1881 for AR; 10 nM R5020 for PR; 10 nM dexamethasone for GR; 10 µM fenofibrate for PPARα; 100 nM rosiglitazone (BRL 49653) for PPARγ; 100 nM cis-retinoic acid (cRA) for RAR; 10 nM dioxine for AHR, 10 µM rifampicine for SXR and 10 µM 22(R) hydroxycholesterol (22(R)HC) for LXRα and LXRβ. At the end of each treatment, cells were lysed in 100 μl lysis buffer (Promega).” left out
# [5] = tested on: AML cells; assay: Immunoblot of caspase-3 and PARP in AML cells; format: cell-based, human; details: 50 µM z-VAD-fmk alone (0 µM DDA), 24 h
# Protocol: Immunoblotting was carried out as described previously. Proteins were separated on SDS-PAGE gels, electro-transferred onto polyvinylidene difluoride membranes and incubated overnight at 4 °C with the following antibodies: anti-Atg3, anti-Atg5 (D1G9), anti-Atg7 (D12B11), anti-Beclin (D40C5), anti-caspase-3 (Cell Signaling), anti-Bcl-2 (Millipore), anti-Bax (Millipore), anti-LC3 (Sigma-Aldrich), anti-LXRα (SantaCruz), anti-LXRβ (SantaCruz), anti-Nur77 (Active motif), anti-NOR1 (R&D systems), anti-PARP (Cell Signaling), anti-Vps34 (Cell Signaling), or anti-Actin (Millipore). For visualization, an ECL plus kit (Amersham Biosciences) was used, and chemiluminescence was measured by autoradiography (Supplementary Fig. 9). Specific bands were quantified with ImageQuant software.
# Supplementary Fig. 6. […]
# AML cells treated with DDA for 24 h in the absence or presence of 50 µM z- VAD-fmk (a
# caspase inhibitor). j Effect of z-VAD-fmk on DDA-induced c ytotox icit y in KG1 and HL60 cells. […]
# Images are
# representative of 3 independent experim ents.
SMILES,LXRα-dependent agonistic or antagonistic activity [1],cytotoxicity and clonogenicity inhibition [2],cytotoxicity and clonogenicity inhibition [3],LXRβ-dependent agonistic or antagonistic activity [4],"cleaved PARP, densitometry [5]","cleaved casp 3, densitometry [5]"
CC(C)CCCC(C)C1CCC2C3CC(n4cncc4CCN)C4(O)CC(O)CCC4(C)C3CCC12C (stereo not shown) [C17],switch from antagonist to agonist activity,inactive,inactive,–,–,–
CC(C)CCCC(C)C1CCC2C3C[C@@H](NCCO)[C@@]4(O)C[C@@H](O)CC[C@]4(C)C3CC[C@]12C (stereo partly shown) [C41],switch from antagonist to agonist activity,–,–,antagonist-agonist switch,–,–
"COC(=O)C[C@H](NC(=O)[C@H](C)NC(=O)[C@@H](NC(=O)OCc1ccccc1)C(C)C)C(=O)CF [z-VAD-fmk, reference compound] (Cbz-Val-Ala-Asp(OMe)-CH2F)",–,–,–,–,0.6,0.4
